PubChem BioAssay AID2060512 (Molecular Pharmacology Branch, DTP, NCI, 2025)

Tested on: 186277-243-T-J2-PDC complex spheroid viability
Test: Anticancer human tumor 186277-243-T-J2-PDC patient-derived colon adenocarcinoma cell line growth inhibition [GQUAD]
Conditions: for IC50: curve of first compound; for viability, T/C: stronger effect = lower value; active = viability on the fitted dose curve at most 10% of control; inactive = the rest
Outline: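 Multi-cell-type spheroids of tumor cells with HUVEC and mesenchymal stem cells, treated with drug combinations. Concentrations descend in half-log steps from near clinical Cmax, or from 10 microM where Cmax is unknown; viability read-out.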

[1] = second compound 0.0316 µM, first compound 0.0316 µM
[2] = second compound 0.0316 µM, first compound 0.1 µM
[3] = second compound 0.0316 µM, first compound 0.316 µM
[4] = second compound 0.0316 µM, first compound 1 µM
[5] = second compound 0.0316 µM, first compound 3.16 µM
[6] = second compound 0.0316 µM, first compound 10 µM
[7] = second compound 0.1 µM, first compound 0.0316 µM
[8] = second compound 0.1 µM, first compound 0.1 µM
[9] = second compound 0.1 µM, first compound 0.316 µM
[10] = second compound 0.1 µM, first compound 1 µM
[11] = second compound 0.1 µM, first compound 3.16 µM
[12] = second compound 0.1 µM, first compound 10 µM
[13] = second compound 0.316 µM, first compound 0.0316 µM
[14] = second compound 0.316 µM, first compound 0.1 µM
[15] = second compound 0.316 µM, first compound 0.316 µM
[16] = second compound 0.316 µM, first compound 1 µM
[17] = second compound 0.316 µM, first compound 3.16 µM
[18] = second compound 0.316 µM, first compound 10 µM
[19] = second compound 1 µM, first compound 0.0316 µM
[20] = second compound 1 µM, first compound 0.1 µM
[21] = second compound 1 µM, first compound 0.316 µM
[22] = second compound 1 µM, first compound 1 µM
[23] = second compound 1 µM, first compound 3.16 µM
[24] = second compound 1 µM, first compound 10 µM
[25] = second compound 3.16 µM, first compound 0.0316 µM
[26] = second compound 3.16 µM, first compound 0.1 µM
[27] = second compound 3.16 µM, first compound 0.316 µM
[28] = second compound 3.16 µM, first compound 1 µM
[29] = second compound 3.16 µM, first compound 3.16 µM
[30] = second compound 3.16 µM, first compound 10 µM
[31] = second compound 10 µM, first compound 0.0316 µM
[32] = second compound 10 µM, first compound 0.1 µM
[33] = second compound 10 µM, first compound 0.316 µM
[34] = second compound 10 µM, first compound 1 µM
[35] = second compound 10 µM, first compound 3.16 µM
[36] = second compound 10 µM, first compound 10 µM
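Note: spheroids exposed to drugs for 7 days.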
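Throughout, for viability, T/C: 100% = DMSO vehicle control viability.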

C=CCn1c(=O)c2cnc(Nc3ccc(N4CCN(C)CC4)cc3)nc2n1-c1cccc(C(C)(C)O)n1 + Cc1cnc(CNC(=O)c2c(=O)c3ccc(N4CCCN(C)CC4)nc3n3c2sc2ccccc23)cn1
inactive: viability, T/C [1] 93.8% | viability, T/C [2] 54.3% | viability, T/C [3] 22% | viability, T/C [4] 10.2% | viability, T/C [5] 12.2% | viability, T/C [6] 15.5% | viability, T/C [7] 49.1% | viability, T/C [8] 44.2% | viability, T/C [9] 25.8% | viability, T/C [10] 14.7% | viability, T/C [11] 13.8% | viability, T/C [12] 20.5% | viability, T/C [13] 51.8% | viability, T/C [14] 46.4% | viability, T/C [15] 33.5% | viability, T/C [16] 17.6% | viability, T/C [17] 17.8% | viability, T/C [18] 24.1% | viability, T/C [19] 27.7% | viability, T/C [20] 35.9% | viability, T/C [21] 30.5% | viability, T/C [22] 24.4% | viability, T/C [23] 23.5% | viability, T/C [24] 26.4% | viability, T/C [25] 34.5% | viability, T/C [26] 31.7% | viability, T/C [27] 34.5% | viability, T/C [28] 21.9% | viability, T/C [29] 23.4% | viability, T/C [30] 22.6% | viability, T/C [31] 31.8% | viability, T/C [32] 31.6% | viability, T/C [33] 31.5% | viability, T/C [34] 22.9% | viability, T/C [35] 22.8% | viability, T/C [36] 24.4%
117 nM: IC50 (second compound 0.0316 µM)
35.1 nM: IC50 (second compound 0.316 µM)
< 31.6 nM: IC50 (second compound 0.1 µM) | IC50 (second compound 1 µM) | IC50 (second compound 3.16 µM) | IC50 (second compound 10 µM)

Nc1ccn(C2OC(CO)C(O)C2(F)F)c(=O)n1 (centres undefined) + CN(C)c1ccc(Nc2c3ccc(NC(=O)CCN4CCCC4)cc3nc3cc(NC(=O)CCN4CCCC4)ccc23)cc1
active: viability, T/C [2] 9.64% | viability, T/C [3] 9.07% | viability, T/C [4] 7.19% | viability, T/C [5] 8.19% | viability, T/C [6] 8.56% | viability, T/C [8] 7.92% | viability, T/C [9] 8% | viability, T/C [10] 7.8% | viability, T/C [11] 8.64% | viability, T/C [12] 8.31% | viability, T/C [14] 7.8% | viability, T/C [15] 7.03% | viability, T/C [16] 7% | viability, T/C [17] 8.54% | viability, T/C [18] 8.47% | viability, T/C [19] 8.71% | viability, T/C [20] 7.38% | viability, T/C [21] 6.7% | viability, T/C [22] 6.93% | viability, T/C [23] 8.1% | viability, T/C [24] 7.47% | viability, T/C [25] 8.12% | viability, T/C [26] 7.76% | viability, T/C [27] 7.81% | viability, T/C [28] 7.28% | viability, T/C [29] 8% | viability, T/C [30] 7.61% | viability, T/C [31] 8.33% | viability, T/C [32] 7.59% | viability, T/C [33] 7.12% | viability, T/C [34] 6.96% | viability, T/C [35] 7.9% | viability, T/C [36] 7.91%
inactive: viability, T/C [1] 10.1% | viability, T/C [7] 10.4% | viability, T/C [13] 10.9%
< 31.6 nM: IC50 (second compound 0.0316 µM) | IC50 (second compound 0.1 µM) | IC50 (second compound 0.316 µM) | IC50 (second compound 1 µM) | IC50 (second compound 3.16 µM) | IC50 (second compound 10 µM)
